Results from the supplement of paper PMC8498969.

Experiments:
HEK293 [1] = assay: IC50 for inhibition of ZIKV NS1 production
Procedure: (§1)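 HEK293 cells in 1536-well plates were pre-treated with compound for 1 h, infected with ZIKV (MOI 1) for 24 h, and NS1 antigen (intra- plus extracellular) was measured by TR-FRET. Confirmation used 11-point 1:3 dilutions, and IC50 and maximal inhibition were fitted in GraphPad Prism.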

HEK293 [2] = assay: cytotoxicity IC50 (ATP content, uninfected cells); higher = less cytotoxic; conditions: infection: none
HEK293 [3] = assay: maximal inhibition of ZIKV NS1 production (% inhibition); higher = stronger antiviral effect
Procedure: as §1

SMILES	IC50 (HEK293 [1]) [µM]	cytotoxicity IC50 (HEK293 [2]) [µM]	maximal inhibition (HEK293 [3])
CCOC(=O)N1CCN(/[N+]([O-])=N/Oc2ccc([N+](=O)[O-])cc2C#N)CC1	4.5	> 100	74
Cc1ccc(C(=O)N(CCCN)[C@@H](c2nc3cc(Cl)ccc3c(=O)n2Cc2ccccc2)C(C)C)cc1	0.067	37	98
COc1cc([C@@H]2c3cc4c(cc3[C@H](O)[C@H]3COC(=O)[C@@H]23)OCO4)cc(OC)c1OC	2.6	> 100	68
Nc1ccc(-c2ccc3ncc4ccc(=O)n(-c5cccc(C(F)(F)F)c5)c4c3c2)cn1	0.72	> 100	90
CC(C)(C)c1cnc(CSc2cnc(NC(=O)C3CCNCC3)s2)o1	1.9	> 100	93
COc1cc2nc(N3CCN(C(=O)c4ccco4)CC3)nc(N)c2cc1OC	18	40	104
O=C(Nc1ccc([N+](=O)[O-])cc1Cl)c1cc(Cl)ccc1O	8.3	3.3	102
CC(C)[C@]12O[C@H]1[C@@H]1O[C@]13[C@]1(O[C@H]1C[C@H]1C4=C(CC[C@@]13C)C(=O)OC4)[C@@H]2O	0.47	> 100	73
CCOC(=O)C1(c2ccccc2)CCN(CCC(C#N)(c2ccccc2)c2ccccc2)CC1	6	9.2	105
CC(C)(O)Cn1c(NC(=O)c2ccc(-c3cn[nH]c3)s2)nc2cc(CN3CCOCC3)ccc21	8.3	> 100	103
O=c1[nH]c(=O)n([C@H]2C[C@H](O)[C@@H](CO)O2)cc1F	0.92	60	98
Clc1ccc(CCC(Cn2ccnc2)Sc2c(Cl)cccc2Cl)cc1 (stereo not drawn)	39	16	97
Cn1c(=O)n(-c2ccc(C(C)(C)C#N)cc2)c2c3cc(-c4cnc5ccccc5c4)ccc3ncc21	3.2	0.53	82
CO/C1=C\C(C)=C\[C@@H](C)[C@@H](O)[C@@H](C)C/C(C)=C/C=C/[C@H](OC)[C@@H]([C@@H](C)[C@@H](O)[C@H](C)[C@@]2(O)C[C@@H](O)[C@H](C)[C@@H](C(C)C)O2)OC1=O	5.3	80	101
CC1=C(CO)C(=O)O[C@@H]([C@@H](C)[C@H]2CC[C@H]3[C@@H]4C[C@H]5O[C@]56[C@@H](O)C=CC(=O)[C@]6(C)[C@H]4CC[C@]23C)C1	2.8	2.8	102
O=C(Cc1ccc(-c2ccc(OCCN3CCOCC3)cc2)cn1)NCc1ccccc1	0.48	19	50
Nc1nc(Cl)nc2c1ncn2[C@@H]1O[C@H](CO)[C@@H](O)[C@@H]1F	41	> 100	94
COc1ccc(-c2cc3c(C)nc(N)nc3n([C@H]3CC[C@H](OCCO)CC3)c2=O)cn1	1.5	0.47	78
CC(=O)O[C@@]12CO[C@@H]1C[C@H](O)[C@@]1(C)C(=O)[C@H](O)C3=C(C)[C@@H](OC(=O)[C@H](O)[C@@H](NC(=O)OC(C)(C)C)c4ccccc4)C[C@@](O)([C@@H](OC(=O)c4ccccc4)[C@H]21)C3(C)C	50	> 100	66
COc1ccc(-c2ccc3ncc4c(c3c2)n(-c2ccc(N3CCNCC3)c(C(F)(F)F)c2)c(=O)n4C)cn1	1.6	20	102
CCc1c2c(nc3ccc(OC(=O)N4CCC(N5CCCCC5)CC4)cc13)-c1cc3c(c(=O)n1C2)COC(=O)[C@]3(O)CC	1.6	> 100	97
CC[n+]1c(/C=C/C=C2/N(C)c3ccccc3C2(C)C)sc2ccccc21	4	0.26	97
Cc1n[nH]c2ccc(-c3cncc(OC[C@@H](N)Cc4c[nH]c5ccccc45)c3)cc12	8.5	> 100	103
CCN(CC)CCNC(=O)c1ccc2nc(-c3ccccc3)c(-c3ccc(CN4CCC(n5c(=O)[nH]c6ccccc65)CC4)cc3)nc2c1	60	> 100	55
CCCCCCCCc1ccc(CCC(N)(CO)CO)cc1	14	> 100	102
CO[C@@]12[C@H](COC(N)=O)C3=C(C(=O)C(C)=C(N)C3=O)N1C[C@@H]1N[C@@H]12	2.7	73	97

SMILES	IC50 (HEK293 [1]) [µM]	cytotoxicity IC50 (HEK293 [2]) [µM]	maximal inhibition (HEK293 [3])
Cc1c2oc3c(C)ccc(C(=O)N[C@@H]4C(=O)N[C@H](C(C)C)C(=O)N5CCC[C@H]5C(=O)N(C)CC(=O)N(C)[C@@H](C(C)C)C(=O)O[C@@H]4C)c3nc-2c(C(=O)N[C@@H]2C(=O)N[C@H](C(C)C)C(=O)N3CCC[C@H]3C(=O)N(C)CC(=O)N(C)[C@@H](C(C)C)C(=O)O[C@@H]2C)c(N)c1=O	0.35	> 100	99
CCc1ccc(OCc2ccccc2C(=O)Nc2ccc3nc(C)cc(N)c3c2)cc1	14	11	104
COC(=O)[C@]12CCC(C)(C)C[C@H]1[C@H]1C(=O)C=C3[C@@]4(C)C=C(C#N)C(=O)C(C)(C)[C@@H]4CC[C@@]3(C)[C@]1(C)CC2	0.28	2.7	100
CC(C)C[C@H](NC(=O)[C@H](Cc1ccccc1)NC(=O)c1cnccn1)B(O)O	0.025	0.04	95
C[C@H]1CCC/C=C/[C@@H]2C[C@H](O)C[C@H]2[C@H](O)/C=C/C(=O)O1	0.43	> 100	99
CC[C@]1(O)C[C@@H]2CN(CCc3c([nH]c4ccccc34)[C@@](C(=O)OC)(c3cc4c(cc3OC)N(C)[C@H]3[C@@](O)(C(N)=O)[C@H](O)[C@]5(CC)C=CCN6CC[C@]43[C@@H]65)C2)C1	0.66	> 100	66
O=[N+]([O-])c1ccc2c(c1)S(=O)(=O)C=C2	11	7.2	103
COc1cc(OC)c(/C=C/S(=O)(=O)Cc2ccc(OC)c(NCC(=O)O)c2)c(OC)c1	1.4	> 100	61
NC(=O)Nc1cc(-c2cccc(F)c2)sc1C(=O)N[C@H]1CCCNC1	0.37	> 100	99
O=C1NCCc2[nH]c(-c3ccncc3)cc21	20	> 100	85
O=C(Nc1ccncc1)C(=O)c1cn(Cc2ccc(Cl)cc2)c2ccccc12	1.3	70	39
CC1(C(=O)O)C2CCC(O2)C1(C)C(=O)O (stereo not drawn)	2.6	> 100	105
CC1=CC(=O)c2ccccc2C1=O	44	45	101
Cn1c(CCCC(=O)O)nc2cc(N(CCCl)CCCl)ccc21	50	> 100	92
CO[C@@H]1[C@@H](OC)[C@H](C)[C@@](O)(CC(=O)O)O[C@H]1[C@H](C)[C@H]1O[C@@]2(CC[C@@](C)([C@H]3CC[C@@](C)([C@@H]4O[C@@H]([C@H]5O[C@](C)(O)[C@H](C)C[C@@H]5C)C[C@@H]4O[C@@H]4C[C@H](OC)[C@@H](OC)[C@H](C)O4)O3)O2)C[C@H](O)[C@H]1C	1.4	1.5	100
O=C1c2c(O)ccc(O)c2C(=O)c2c(NCCNCCO)ccc(NCCNCCO)c21	0.23	50	100
COc1cccc(-c2ccc(NC(=O)C3=C(C(=O)O)CCC3)c(F)c2)c1	4	1.9	107
C/C=C(/C)C(=O)O[C@H]1C(C)=C2[C@H]([C@@H]1OC(=O)CCCCCCC)[C@@](C)(OC(C)=O)C[C@H](OC(=O)CCC)[C@@]1(O)[C@H]2OC(=O)[C@@]1(C)O	0.17	40	93
[O-][n+]1ccccc1SSc1cccc[n+]1[O-]	1.4	0.16	98
CC(C)n1nc(-c2cc3cc(O)ccc3[nH]2)c2c(N)ncnc21	16	77	78
Cc1ccc([N+](=O)[O-])cc1S(=O)(=O)N(C)/N=C/c1cnc2ccc(Br)cn12	0.62	> 100	101
Cc1cnc(NC(=O)Nc2cc(Br)c(C)cc2OC[C@@H]2CNCCO2)cn1	1.7	> 100	101
COc1cc(NS(C)(=O)=O)ccc1Nc1c2ccccc2nc2ccccc12	1.4	70	105
CC[C@@H]1[C@@H](C)O[C@@](O)([C@@H](C)[C@H](O)[C@H](C)[C@H]2OC(=O)/C=C/C=C/[C@H](C)[C@@H]([C@@H](C)[C@@H](O)[C@H](C)[C@@]3(O)C[C@@H](O[C@H]4C[C@H](O)[C@H](O)[C@H](C)O4)[C@H](CC)[C@@H](C)O3)OC(=O)/C=C/C=C/[C@@H]2C)C[C@H]1O[C@H]1C[C@H](O)[C@H](O)[C@H](C)O1	3.9	1.5	100
CNC1CCC(N(Cc2cccc(-c3ccncc3)c2)C(=O)c2sc3ccccc3c2Cl)CC1 (stereo not drawn)	49	> 100	94
